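Test compounds were applied to cells in 96-well plates for 48 hours at 5 doses. Abbreviation: GI50, concentration required for 50% inhibition of growth. TGI denotes the concentration required for complete inhibition of growth.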
How the values were obtained:
Assay in all cases: growth of human tumour cells (NCI), 48 h
[1] = test system: EKVX NSCLC
[2] = test system: COLO 205 colon
[3] = test system: UACC-257 melanoma
[4] = test system: RXF 393 renal
[5] = test system: A498 renal
[6] = test system: NCI-H522 lung
[7] = test system: RPMI-8226 leukemia
[8] = test system: ACHN renal
[9] = test system: SR leukemia
[10] = test system: OVCAR-4 ovarian

SMILES | TGI [1] [µM] | TGI [2] [µM] | TGI [3] [µM] | TGI [4] [µM] | TGI [5] [µM] | TGI [6] [µM] | TGI [7] [µM] | TGI [8] [µM] | TGI [9] [µM] | TGI [10] [µM] | GI50 [1] [µM] | GI50 [2] [µM] | GI50 [3] [µM] | GI50 [10] [µM] | GI50 [4] [µM] | GI50 [5] [µM] | GI50 [6] [µM] | GI50 [7] [µM] | GI50 [8] [µM] | GI50 [9] [µM]
IC[P+]1(c2ccccc2)CCCC1 | 46.1 | 31 | > 100 | > 100 | 88.6 | 21.6 | > 100 | > 100 | > 100 |  |  |  |  |  |  |  |  |  |  | 
CC(=O)Nc1ccc(-c2cc(C(=O)O)c3cc4ccccc4cc3n2)cc1 | > 100 | > 100 | > 100 | > 100 | > 100 | > 100 | > 100 | > 100 | > 100 | > 100 |  |  |  |  |  |  |  |  |  | 
Cc1ccc2cnc(N)c(C#Cc3cc(C(=O)Nc4ccc(CN5CCN(C)CC5)c(C(F)(F)F)c4)cnc3C)c2c1 | 1.53 | 1.16 | 1.48 | 1.35 | 1.57 | 1.36 | 2.86 | 1.06 | 1.61 | 8.36 | 0.679 | 0.296 | 0.651 | 0.436 | 0.676 | 0.837 | 0.588 | 1.01 | 0.449 | 0.39
O=S(=O)(/N=c1\scc(-c2ccccc2)n1-c1ccccc1)c1ccc(N2N=C3c4ccccc4CC3C2c2ccc(Cl)cc2)cc1 (configuration not stated) | > 100 | 54.9 | > 100 | > 100 | > 100 | 82.3 | > 100 | > 100 | 45.9 | > 100 | 61.1 | 23.6 | 83.5 | 63.8 | 42 | 79.8 | 22.7 | 21.5 | 40.1 | 17.3
CC(=O)c1c(C(F)(F)F)n([O-])c2ccccc2[n+]1=O | 8.01 | 7.27 | 13.6 | 6.03 | 4.48 | > 100 | 3.62 | 12.3 | 2.3 | 3.9 | 3.47 | 2.16 | 2.77 | 0.969 | 1.57 | 1.56 | 2.46 | 0.572 | 1.05 | 0.167
C/C(=N/O)c1cccc(Nc2cc(-n3nnc4ccccc43)nc3ccccc23)c1 | > 32 | > 73 | > 64.4 | 43 | 55.8 | > 57.5 | 14.4 | 46.6 | 35.2 | > 100 | 8.07 | 32.4 | 22.7 | 18.8 | 14.7 | 25 | 19.4 | 3.07 | 14.2 | 15
O=c1ncccn1[C@@H]1O[C@H](CO)[C@H](O)C1O (some centres not stated) | > 100 | > 100 | > 100 | > 100 | > 100 | > 100 | > 100 | > 100 | > 100 | > 100 |  |  |  |  |  |  |  |  |  | 
O=C1OCC2=C1C(c1cccc(F)c1)c1cc3c(cc1N2CCO)OCO3 (configuration not stated) | > 50 | 15.1 | > 50 | 4.96 | 4.87 | 29 | > 50 | > 50 | > 50 | > 50 | 3.03 | 1.48 | > 50 | 46.8 | 1.51 | 1.11 | 0.259 | 2.28 | 3.03 | 0.294
CCSC1=NC2C(N(CC)C(=O)N2CC)N1/N=C/C=C/c1ccccc1[N+](=O)[O-] (configuration not stated) | > 100 |  | > 100 | > 100 | 0.209 | 46.2 | > 34.1 | > 100 | > 48 | > 100 | 0.314 |  | 23.8 | 0.28 | 0.033 | 0.0283 | 0.0395 | 0.334 | 0.121 | 0.0895
C=C(c1ccccc1)C1(O)CCCCC1N (configuration not stated) | > 100 | > 100 | > 100 | > 100 | > 100 | > 100 | > 100 | > 100 | 72.8 | > 100 |  |  |  |  |  |  |  |  |  | 
Cc1c(OC(C)C(=O)O)ccc2c(-c3ccccc3)cc(=O)oc12 (configuration not stated) | > 100 | > 100 | > 100 | > 100 | > 100 | > 100 | > 100 | > 100 | > 100 | > 100 |  |  |  |  |  |  |  |  |  | 
FC(F)(F)c1cccc(-c2nc3nc(Cl)c(Cl)nc3[nH]2)c1 | 23.2 | 2.98 | > 30.9 | 27 | 6.12 | 4.11 | 3.5 | > 28.2 | 12.2 | > 41.6 |  |  |  |  |  |  |  |  |  | 
CCOc1ccccc1CCN=C1NC(=O)/C(=C/c2ccc3ncccc3c2)S1 |  | 3.07 | > 22.7 | 10.5 | 12.8 | 3.49 | 8.38 | > 25 | 3.04 | > 22.9 |  | 0.735 | 10.5 | 1.36 | 1.31 | 0.744 | 0.676 | 1.02 | 1.45 | 0.146
COC(=O)/C(=N\NC(C)(C)C)C(C(=O)OC)C(=O)C(=O)Nc1cc(Cl)ccc1Cl (configuration not stated) | > 100 | > 100 | > 100 | > 100 | > 100 | > 100 |  | > 100 | > 100 | > 100 |  |  |  |  |  |  |  |  |  | 
CC(CO)Nc1cc(-c2[nH]c3cccnc3c2-c2ccc(F)cc2)ccn1 (configuration not stated) |  | > 25 | > 25 | > 25 | 25 | > 25 | > 25 | > 25 | > 25 | > 25 |  | 13.8 | > 25 | > 25 | 12.5 | 4.36 | > 25 | 17 | 3.99 | 17

From PubChem BioAssay (NCI)
